Read-outs that look alike come from different tables or passages of the source.
Columns and labels:
[1] = test system: CD8+ T cells expressing a CD19 CAR with 4-1BB costimulation; experiment: Bioluminescence-based cytotoxicity assay, K562/CD19 target cells; assay type: cell-based, human
Procedure: Cytotoxicity: Target cells were stably transduced with ffluc_GFP and incubated in triplicate wells at 1×10^4 cells/well with effector T cells at an effector to target (E:T) ratio of 5:1. D-luciferin substrate (Biosynth, Staad, Switzerland) was added to the co-culture to a final concentration of 0.15 mg/ml and the decrease in luminescence signal in wells that contained target cells and T-cells was measured using a luminometer (Tecan, Mannedorf, Switzerland). Specific lysis was calculated using the standard formula.
The inventors prepared CD8+ CAR-T cell lines from n=3 healthy donors. In each of the T-cell lines, the inventors enriched CAR-expressing T cells to >90% purity using the EGFRt-transduction marker. The inventors analyzed cytolytic activity of CD8^+ CAR-T cells in a bioluminescence-based cytotoxicity assay using K562 that the inventors had transduced with either CD19 (for testing CD19 CAR-T cells) or ROR1 (for testing ROR1 CAR-T cells) as target cells. Dasatinib was added to the assay medium at the beginning of the assay.
The inventors prepared CD8^+ CAR-T cell lines from n=3 healthy donors. In each of the T-cell lines, the inventors enriched CAR-expressing T cells to >90% purity using the EGFRt-transduction marker. The inventors analyzed cytolytic activity of CD8^+ CAR-T cells in a bioluminescence-based cytotoxicity assay using K562 target cells that the inventors had transduced with CD19.
The CAR-T cell cytolytic activity was analyzed at 1-hour intervals for 10 hours.
The inventors analyzed cytolytic activity of CD8+ CAR-T cells in a bioluminescence-based cytotoxicity assay.
The inventors prepared CD8^+ CD19 CAR-T cell lines with a 4-1BB costimulatory domain from one healthy donor. In the T-cell line, the inventors enriched CAR expressing T cells to >90% purity using the EGFRt-transduction marker. The inventors analyzed cytolytic activity of CD8^+ CAR-T cells in a 4-hour bioluminescence-based cytotoxicity assay using K562 that the inventors had transduced with CD19 as target cells to assess the influence of a panel of Src-kinase inhibitors on the cytolytic function of CAR-T cells. Src-kinase inhibitors were added to the assay medium at the beginning of the assay over a 4-log concentration range.

[2] = test system: NFAT/GFP reporter in CD4+ T cells co-expressing the CD19 CAR with 4-1BB costimulatory domain; experiment: NFAT/GFP reporter assay during sequential stimulation; assay type: cell-based, human
[3] = test system: activated CD19 CAR/CD28-T cells; Raji tumor cells; experiment: Raji tumor burden by bioluminescence imaging, function ON/OFF/ON (Example 8); assay type: in vivo, NSG mice
Procedure: The Institutional Animal Care and Use Committee of UKW approved all mouse experiments. NOD.Cg-Prkdc^scidIl2rg^tm1wjl/SzJ (NSG) mice (female, 6-8 week old) were purchased from Charles River (Sulzfeld, Germany). Mice were inoculated with 1×10^6 Raji/ffluc_GFP tumor cells via tail vein injection (i.v.). Mice were treated with 5×10^6 CAR-modified or control untransduced T-cells (CD4:CD8 ratio=1:1) via tail vein injection (i.v.). […] Tumor burden and distribution was analyzed by serial bioluminescence imaging on an IVIS Lumina imager (Perkin Elmer, Baesweiler, Germany): mice received i.p. injections of 0.3 mg/g luciferin and images were acquired 10 minutes after luciferin injection in small binning mode at an acquisition time of 1 s to 1 min to obtain unsaturated images. Data were analyzed using LivingImage Software (Caliper) and the average radiance (or photon flux) analyzed in regions of interest that encompassed the entire body of each individual mouse. Mice were sacrificed at the end of the experiment and human T cells in bone marrow, peripheral blood and spleen were analyzed by flow cytometry. The presence of (human) cytokines in serum was measured using multiplex cytokine analysis. […]
Raji tumor burden was determined by bioluminescence imaging on day 7, day 10, day 12, day 14, day 17, and subsequently, once a week.

[4] = test system: CD4+ T cells expressing a CD19 CAR with 4-1BB costimulation; experiment: Multiplex cytokine analysis, co-culture with K562/CD19; assay type: cell-based, human; settings: dasatinib ≥25 nM; 20 h; compared to non-dasatinib treated CAR-T cells
Procedure: A multiplex cytokine analysis was performed in supernatant removed from the co-culture.

[5] = test system: CD8+ T cells expressing a SLAMF7-CAR with 4-1BB costimulation; experiment: Bioluminescence-based cytotoxicity assay, K562/SLAMF7 target cells; assay type: cell-based, human
[6] = cited from earlier work
CD19 CAR/4-1BB-T cells = experiment: Serum cytokine levels in NSG/Raji xenograft model (multiplex cytokine analysis); assay type: in vivo, NSG mice
ZAP70 at tyrosine 319 = experiment: Quantitative Western blot of phosphorylation in CD8+ CD19 CAR/4-1BB T cells; assay type: cell-based, human; settings: 100 nM dasatinib; co-culture with RCH-ACV
[7] = test system: CD8+ T cells expressing a CD19 CAR with 4-1BB costimulation; experiment: Cytokine production and secretion (IFN-γ, IL-2 ELISA), co-culture with K562/CD19; assay type: cell-based, human; settings: 20 h
[8] = dasatinib 100 nM added 2 hours after the start of the co-culture

With Cc1nc(Nc2ncc(C(=O)Nc3c(C)cccc3Cl)s2)cc(N2CCN(CCO)CC2)n1 [dasatinib] the specific lysis ([1]; 0.1 μM dasatinib at the beginning of the assay, t=10 h) was under 1%, the “specific lysis of target cells” value ([1]; dasatinib 25 nM, t=6 h, 53% by non-dasatinib treated) was 26% and the “specific lysis of target cells” value ([1]; dasatinib 25 nM, t=12 h, 93% by non-dasatinib treated) was 73%. For the same compound, the “specific lysis of target cells” value ([1]; dasatinib 100 nM for 2 hours, then removed, at 10 hours) was over 95%, the “specific lysis of target cells” value ([1]; dasatinib 100 nM for 2 hours, then removed, at +4 hours) was 77% and the “specific lysis of target cells” value ([1]; dasatinib ≤12.5 nM, t=12 h, 93% by non-dasatinib treated CAR-T cells) was over 88%. For the same compound, the “specific lysis of target cells” value ([1]; dasatinib ≥50 nM, t=12 h, 93% by non-dasatinib treated) was “less than 12%”, the “specific lysis of target cells” value ([1]; dasatinib ≥50 nM, up to t=6 h) was “less than 7%” and the “specific lysis of target cells” value ([1]; inhibitor 10 nM, 4-hour assay, 82% by untreated CAR-T cells) was 16.1%. For the same compound, the “GFP MFI” value ([2]; day 1, dasatinib present from the beginning) was 317, the “GFP MFI” value ([2]; day 3, treated at 1 hour after assay set up, 2499 in untreated) was 326 and the “GFP MFI” value ([2]; day 3, treated from the beginning, 2499 in untreated) was 108. For the same compound, the “mean reduction of BLI” value ([3]; between day 12 and 14, previously treated with dasatinib) was 71%, the “median BLI” value ([3]; day 17, CAR/Dasa, 966 CAR/vehicle, 839 CAR alone) was 507 and the “reduction of production and secretion of GM-CSF, IFN-γ, IL-2, IL-4, IL-5, IL-6, IL-8” value [4] was over 95%. The “specific lysis of target cells” value ([5]; dasatinib 20 nM, t=6 h, 63% by non-dasatinib treated) was 21%, the “specific lysis of target cells” value ([5]; dasatinib 20 nM, t=12 h, 83% by non-dasatinib treated) was 35% and the “specific lysis of target cells” value ([5]; dasatinib ≥40 nM, t=12 h, 83% by non-dasatinib treated) was “less than 10%”. The “specific lysis of target cells” value ([5]; dasatinib ≥40 nM, up to t=6 h) was “less than 5.5%”, the “dasatinib concentration in mouse serum” value ([6]; 5 mg/kg i.p., after each injection, based on known pharmacokinetics [23]) was over 50 nM and the “window after each injection with dasatinib at that serum concentration” value ([6]; 5 mg/kg i.p., based on known pharmacokinetics [23]) was about 6 h. For the same compound, the “total window with dasatinib present in mouse serum at that concentration” value ([6]; 10 mg/kg i.p. every 6 hours, 6 doses, 3 hours prior to 33 hours after T-cell transfer) was 36 h, the “dasatinib concentration in mouse serum” value ([6]; 10 mg/kg i.p. every 6 hours, 6 doses, based on known pharmacokinetics [23]) was “at least 100 nM” and the “serum level of GM-CSF” value (CD19 CAR/4-1BB-T cells; day +1, CAR-T cells and dasatinib (CAR/+)) was 6.4 pg/mL. The “serum level of IFN-γ” value (CD19 CAR/4-1BB-T cells; day +1, CAR/+) was 13.4 pg/mL, the “serum level of IL-5” value (CD19 CAR/4-1BB-T cells; day +1, CAR/+) was 21.4 pg/mL and the “serum level of TNF-α” value (CD19 CAR/4-1BB-T cells; day +1, CAR/+) was 0.04 pg/mL. The “serum level of GM-CSF” value (CD19 CAR/4-1BB-T cells; day +3, dasatinib discontinued) was 45.8 pg/mL, the “serum level of IFN-γ” value (CD19 CAR/4-1BB-T cells; day +3, dasatinib discontinued) was 411.8 pg/mL and the “serum level of IL-2” value (CD19 CAR/4-1BB-T cells; day +3, dasatinib discontinued) was 0.2 pg/mL. For the same compound, the “serum level of IL-5” value (CD19 CAR/4-1BB-T cells; day +3, dasatinib discontinued) was 331.2 pg/mL, the “serum level of IL-6” value (CD19 CAR/4-1BB-T cells; day +3, dasatinib discontinued) was 0.9 pg/mL and the “serum level of TNF-α” value (CD19 CAR/4-1BB-T cells; day +3, dasatinib discontinued) was 0.9 pg/mL. For the same compound, the “phosphorylation compared to CAR-T cells co-cultured in the absence of dasatinib” value (ZAP70 at tyrosine 319) was 11.61%, the “residual IFN-γ production (untreated CAR-T cells=100%)” value [7, 8] was 51% and the “residual IL-2 production (untreated CAR-T cells=100%)” value [7, 8] was 28%. For the same compound, the “residual specific IFN-γ production compared to non-dasatinib treated CAR-T cells” value ([7]; dasatinib ≥6.25 nM) was “less than 45%”, the “residual specific IL-2 production compared to non-dasatinib treated CAR-T cells” value ([7]; dasatinib ≥6.25 nM) was “less than 60%” and the “residual specific IL-2 production compared to non-dasatinib treated CAR-T cells” value ([7]; dasatinib ≥50 nM) was “less than 1%”.

Source: patent US20230310432A1 (JULIUS-MAXIMILIANS-UNIVERSITÄT WÜRZBURG, priority 2017, published 2023)
